Blank lines part the entries; values can stand above or below the compound they belong to.
Columns and labels:
MysD = MysD reaction with MG and amino acid substrates (substrate preference); type: biochemical, Nostoc linkia NIES-25; settings: for consumption of MG in the MysD reaction: optimal conditions, after 3 h; for consumption level of MG in the MysD reaction relative to that with L-Thr (set as 100%): L-Thr and L-Ser 8 min, other amino acids 30 min, from produced disubstituted MAAs
Method: The current and previous heterologous expression studies supported the function of MysD in the biosynthesis of disubstituted MAAs (FIG. 3).^29,35 To further characterize its catalytic properties, recombinant His6-tagged MysD of N. linkia NIES-25 was prepared from E. coli after a single affinity purification (FIG. 21). The enzyme reaction was performed with MysD (0.5 μM), MG (50 μM), and L-Thr (1 mM) in the presence of ATP (1 mM) and Mg^2+ (10 mM) at room temperature for 2 h. […] No product was formed in the control reactions without enzyme or ATP (FIG. 5A). The requirement of ATP for the MysD reaction supports its prediction as the D-Ala-D-Ala ligase-like enzyme of the ATP grasp superfamily.^29 The optimal temperature and pH of its reaction were determined at 37° C. and pH=8.5 (FIG. 22). Under these optimal reaction conditions, all 20 natural amino acids were screened (5 mM) along with MG (50 μM) in the MysD reaction. […] LC-HRMS and MS/MS analysis indicated the formation of their corresponding disubstituted MAAs, MG-Ala, MG-Arg (observed [M+H]^+: 402.1977; calculated [M+H]^+: 402.1983), MG-Cys (observed [M+H]^+: 349.1059; calculated [M+H]^+: 349.1064), mycosporine-2-Gly (observed [M+H]^+: 303.1182; calculated [M+H]^+: 303.1187), shinorine, and porphyra-334 (FIGS. 24, 25, and 26). […] Nonetheless, the result of this biochemical study well agreed with the production of porphyra-334 along with small amounts of shinorine and MG-Ala in the above heterologous expression study (FIG. 3C). To further understand MysD's substrate preference, the enzyme concentration was lowered to 0.25 μM. […] The consumed MG level in this reaction was set as 100% to normalize its level in the five other reactions, which was determined from the concentrations of produced disubstituted MAAs in the reactions (FIG. 5C). […] Together, the results of these biochemical studies highlight the broad substrate scope of MysD and its strong preference toward L-Thr in the MAA biosynthesis.
MysD Reaction. MG was purified from extracts of E. coli expressing MysAB2C by HPLC and used as the substrate for the MysD reactions. The quality of MG was calculated based on its reported extinction coefficient (28,100 M^−1cm^−1). The initial MysD reactions included MG (50 μM), L-Thr (1 mM), Mg^2+ (10 mM), and ATP (1 mM) in 100 mM Tris-Cl, pH 7.5. The reactions were initiated by adding MysD (0.5 μM) and then incubated at room temperature for 2 h. The control reactions omitted MysD or ATP. All reactions were quenched by heat inactivation at 95° C. for 10 min. After centrifugation at 20,000×g for 15 min, the clear supernatants were collected for HPLC and LC-HRMS analysis. To determine the optimal reaction conditions, the MysD reaction was performed in 100 mM buffer with a pH of 6.5 to 11 at 16 to 60° C. for 6 min. To explore the substrate scope of MysD, all 20 natural amino acids (5 mM) were screened in the above reaction mixtures under the optimal conditions for 3 h. The reactions were terminated and then analyzed in the HPLC and/or LC-MS analysis. To determine the relative activity of six identified amino acids as MysD's substrates, a two-step strategy was used. First, the reactions were performed with 0.25 μM MysD for 8 min, which led to no more than 50% consumption of MG into porphyra-334 with the best substrate L-Thr and into shinorine with L-Ser. For the other four amino acids, the levels of their corresponding disubstituted MAAs were determined after the reaction time was elongated to 30 min. All reactions were performed in at least two independent replicates.

[1] = Maximal UV absorbance of MAAs by HPLC with PDA detector; type: physicochemical; settings: compound produced in engineered E. coli, methanolic extract of cell pellets
Method: HPLC and LC-MS Analysis. Samples were analyzed on a Shimadzu Prominence UHPLC system (Kyoto, Japan) coupled with a PDA detector. The compounds were separated on a Phenomenex Luna C8 column (4.6×250 mm, 5 μm) using the following HPLC program: 2% B for 15 min, 2-90% B gradient in 2 min, 90% B for 2 min, 90-2% in 2 min, and re-equilibration in 2% B for 6 min. The A phase was 0.1 M triethylammonium acetate pH 7.0 and the B phase was methanol. The flow rate was set at 0.5 mL/min. In the quantitative analysis of relative activity of MysD with different amino acid substrates, water containing 0.1% formic acid was used as phase A to fully separate MG with MG-Ala. LC-HRMS and HRMS/MS experiments were conducted on Thermo Scientific™ Q Exactive Focus mass spectrometer with Dionex™ Ultimate™ RSLC 3000 uHPLC system, equipped with H-ESI II probe on Ion Max API Source. Methanol (B)/Water (A) containing 0.1% formic acid were used as mobile phases, and the same LC program was used as in the HPLC analysis. The eluents from the first 3 min were diverted to waste by a diverting valve. MS1 signals were acquired under the Full MS positive ion mode covering a mass range of m/z 150-2000, with resolution at 35,000 and AGC target at 1e6. Fragmentation was obtained with the Parallel Reaction Monitoring (PRM) mode using an inclusion list of calculated parental ions. The AGC target was set at 5e4 for MS2. Precursor ions were selected in the quadrapole typically with an isolation width of 3.0 m/z and fragmented in the HCD cell at a collision energy (CE) of 30. For some ions, the isolation width was 2.0 m/z and step-wise CE of 15, 20, and 25 were used.
HPLC and LC-HRMS analysis. Samples were analyzed on a Shimadzu Prominence UHPLC system (Kyoto, Japan) coupled with a PDA detector. Unless stated elsewhere, the following HPLC procedure was performed. The compounds were separated on a Phenomenex Luna C8 column (4.6×250 mm, 5 μm) using the following HPLC program: 2% B for 15 min, 2-90% B gradient in 2 min, 90% B in 2 min, 90-2% in 2 min, and re-equilibration in 2% B for 6 min. The A phase was water with 0.1 M triethylamine acetate (TEAA) at pH 7 and the B phase was methanol. The flow rate was set at 0.5 mL/min. LC-HRMS and HRMS/MS experiments were conducted on a Thermo Scientific Q Exactive Focus mass spectrometer with a Dionex Ultimate RSLC 3000 uHPLC system, equipped with the H-ESI II probe on an Ion Max API Source. Methanol (B)/water (A) containing 0.1% formic acid were used as mobile phases. The eluents from the first 3 min were diverted to waste by a diverting valve. MS1 signals were acquired under the Full MS positive ion mode, covering a mass range of m/z 150-2000, with resolution at 35 000 and AGC target at 1×10^6.

MysH = MysH reaction steady-state kinetics with porphyra-334; type: biochemical, Nostoc linckia NIES-25; settings: 20 to 1000 uM porphyra-334, 0.5 uM MysH, room temperature, 30 min, pH 7.5
Method: To further characterize the catalytic properties of MysH, the recombinant MysH of Nostoc linckia NIES-25 was prepared with a C-terminal His6-tag in E. coli after a single Ni-NTA affinity purification (FIG. 33A). The MysH reaction contained 50 mM Tris-Cl at pH 7.5, 0.5 uM MysH, 50 uM porphyra-334, 1 mM 2-oxoglutarate (2OG), 1 mM Fe(NH4)2(SO4)2, 10 mM ascorbate, and the reaction was performed at room temperature overnight. MysH successfully converted porphyra-334 into palythine-Thr in the HPLC analysis, while the complete conversion was not achieved with a higher enzyme concentration or a longer reaction time. […] To improve the reaction conversion, different concentrations of 2OG, Fe(NH4)2(SO4)2, ascorbate, and shaking speed were tested, but no significant improvement was observed. On the other hand, the inclusion of catalase led to the full conversion of porphyra-334 by MysH (FIG. 33B). The Fe(III)-O—O· species is likely one key intermediate in the MysH reaction. Hydrogen peroxide may be released via […] of Fe(III)-O—O· and inhibit the enzyme reaction.
The optimal MysH reaction conditions were determined to be 50 mM HEPES, pH 7.5, 0.5 uM MysH, 1 mM α-KG, 1 mM ascorbate, 10 uM Fe(NH4)2(SO4)2, and 8 μg/mL catalase. Steady-state kinetic studies were performed with 20 to 1000 uM porphyra-334, and the reactions were carried out at room temperature for 30 min. The reactions followed Michaelis-Menten kinetics (FIG. 34).

[2] = reported value used to quantify MG; cited from earlier work

Compound: C[C@@H](O)[C@H](N)C(=O)O [L-Thr]
- MG converted into porphyra-334 (MysD; 0.25 μM MysD, 50 μM MG, 5 mM amino acid, 8 min, optimal conditions (37° C., pH 8.5)): about 40%
- consumption of MG in the MysD reaction (MysD; 5 mM amino acid, 50 μM MG): complete consumption of MG

Compound: N[C@@H](CO)C(=O)O [L-Ser]
- consumption level of MG in the MysD reaction relative to that with L-Thr (set as 100%) (MysD; 0.25 μM MysD): about 12.7%
- consumption of MG in the MysD reaction (MysD; 5 mM amino acid, 50 μM MG): complete consumption of MG

Compound: COC1=C(N)C[C@@](O)(CO)C/C1=N\[C@H](C(=O)O)C(C)O (some centres unmarked) [palythine-Thr]
- maximal absorbance [1]: 320 nm

Compound: mycosporine-amine [M-NH2]
- maximal absorbance [1]: 298 nm

Compound: C[C@H](N)C(=O)O [L-Ala]
- consumption level of MG in the MysD reaction relative to that with L-Thr (set as 100%) (MysD; 0.25 μM MysD): 0.4%

Compound: N[C@@H](CS)C(=O)O [L-Cys]
- consumption level of MG in the MysD reaction relative to that with L-Thr (set as 100%) (MysD; 0.25 μM MysD): 0.9%

Compound: COC1=C(N)CC(O)(CO)CC1=NC(CO)C(=O)O (centres unmarked) [Palythine-Ser, palythine-Ser]
- maximal absorbance [1]: 320 nm

Compound: COC1=C(NCC(=O)O)C[C@@](O)(CO)CC1=N[C@H](C(=O)O)[C@@H](C)O [porphyra-334]
- Km (MysH): 385 µM
- Vmax (MysH): 0.62 µM/min
- kcat (MysH): 0.0207 s⁻¹
- maximal absorbance [1]: around 334 nm

Continued, in another order:

- maximal absorbance [1]: around 334 nm
Compound: COC1=C(NCC(=O)O)CC(O)(CO)C/C1=N\C(C)C(=O)O (centres unmarked) [MG-Ala, mycosporine-glycine-alanine]

- maximal absorbance [1]: 294 nm
Compound: COC1=C(O)CC(O)(CO)CC1=O (centres unmarked) [4-DG, 4-deoxygadusol]

- maximal absorbance [1]: 310 nm
Compound: COC1=C(NCC(=O)O)C[C@@](O)(CO)CC1=O [MG, mycosporine-glycine]
- extinction coefficient [2]: 28,100 M^−1cm^−1

Reference: patent US20260043057A1, “ENZYMATIC SYNTHESIS OF MYCOSPORINE-LIKE AMINO ACIDS” (University of Florida Research Foundation, Incorporated, priority 2022, published 2026)
